Tests used:
[1] = test system: adrenaline-induced arrhythmia in rats; experiment: Prophylactic antiarrhythmic activity in adrenaline-induced arrhythmia; assay type: in vivo, rat
Description: The experiment was carried out according to the method described by Szekeres and Papp. Normotensive rats were anesthetized with thiopental (75 mg/kg ip). Adrenaline was administered at the dose of 20 µg/kg to induce heart rhythm disturbances. The studied compound was injected intraperitoneally 45 min before the arrhythmogen. The electrocardiogram (ECG) was recorded during the first 2 min and in the 5th, 10th, and 15th min after the adrenaline injection. The criterion of prophylactic antiarrhythmic activity was the lack of extrasystoles and inhibition of cardiac arrhythmia in comparison with the control group. The ED50 (a dose producing a 50% inhibition of ventricular contractions) was determined by computer log-probit analysis according to Litchfield and Wilcoxon.

α1-adrenergic receptors = experiment: Influence on blood vasopressor response to adrenaline, noradrenaline and methoxamine in rats; assay type: in vivo; details: rat, 1.25 mg/kg iv, 5 min after administration
Description: To establish agonistic or antagonistic toward α1-adrenergic receptors, we studied the influence of the studied compound on the pressor response to adrenaline (2 µg/kg), noradrenaline (2 µg/kg), and methoxamine (150 µg/kg). Normotensive rats were anesthetized with thiopental (75 mg/kg ip). The right carotid artery was cannulated with a polyethylene tube filled with heparin solution to allow pressure measurements, using a Datamax apparatus (Columbus Instruments, Columbus, OH, USA). The experiment was carried out after 15 min of the stabilization period. The pressor response to adrenaline, noradrenaline, and methoxamine was measured before (control) and 5 min after the administration of the tested compound.

α1-adrenoceptor = α1-adrenoceptor radioligand binding assay ([3H]-prazosin, rat cerebral cortex); details: rat cortex tissue
Description: (§1) The α1-, α2-, and β1-adrenoceptor radioligand binding assay was carried out on the rat cerebral cortex. [^3H]-prazosin (19.5 Ci/mmol, α1-adrenoceptor), [^3H]-clonidine (70.5 Ci/mmol, α2-adrenoceptor), and [^3H]-CGP-12177 (48 Ci/mmol, β1-adrenergic receptor) were used as specific ligands. The brains were homogenized using ULTRA-TURRAX homogenizer in 10 mL of an ice-cold 50 mM Tris–HCl buffer (pH 7.6). Homogenates were centrifuged at 20,000× g for 20 min (0–4 °C). Next, the cell pellet was resuspended in the Tris–HCl buffer and centrifuged again. Radioligand binding assays were performed in plates (MultiScreen/Millipore). The final incubation mixture (volume 300 μL) consisted of 240 μL of the tissue suspension, 30 μL of radioligand solution, and 30 μL of the buffer containing 7–8 concentrations of the tested compound. […] The incubation was terminated by rapid filtration through Whatman GF/C filters using a vacuum manifold (Millipore). The filters were then washed twice with the assay buffer and placed in scintillation vials with a liquid scintillation cocktail. Radioactivity was measured in a WALLAC 1409 DSA liquid scintillation counter (Perkin Elmer, Waltham, MA, USA). All the assays were made in duplicates and the inhibitory constants (Ki) were estimated.

β1-adrenergic receptor = biological target: T1, β1-adrenergic receptor (Rattus norvegicus, UniProt P18090); experiment: β1-adrenoceptor radioligand binding assay ([3H]-CGP-12177, rat cerebral cortex)
T1 construct: from tissue; host or cells: rat cerebral cortex homogenate
Description: as §1, with “[^3H]-prazosin (19.5 Ci/mmol, α1-adrenoceptor), [^3H]-clonidine (70.5 Ci/mmol, α2-adrenoceptor), and [^3H]-CGP-12177 (48 Ci/mmol, β1-adrenergic receptor) were used as specific ligands.” left out, “Radioactivity was measured in a WALLAC 1409 DSA liquid scintillation counter (Perkin Elmer, Waltham, MA, USA).” left out

T1 sequence (P18090 whole entry): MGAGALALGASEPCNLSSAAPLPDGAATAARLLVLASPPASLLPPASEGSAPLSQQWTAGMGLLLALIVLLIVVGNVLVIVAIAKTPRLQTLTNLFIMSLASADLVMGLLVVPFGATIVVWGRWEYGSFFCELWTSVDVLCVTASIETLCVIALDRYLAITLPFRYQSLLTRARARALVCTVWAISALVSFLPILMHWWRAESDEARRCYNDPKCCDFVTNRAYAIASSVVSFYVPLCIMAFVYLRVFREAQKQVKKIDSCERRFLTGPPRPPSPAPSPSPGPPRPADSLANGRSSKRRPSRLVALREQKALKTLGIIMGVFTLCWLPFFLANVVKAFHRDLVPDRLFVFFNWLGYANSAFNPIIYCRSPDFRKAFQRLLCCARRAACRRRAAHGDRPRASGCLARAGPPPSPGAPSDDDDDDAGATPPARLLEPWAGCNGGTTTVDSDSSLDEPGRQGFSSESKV

- Adrenergic Receptors—pKi α1 (α1-adrenoceptor): 8.55
- Ki (β1-adrenergic receptor; rat cortex tissue, [3H]-CGP-12177, read-out: Adrenergic Receptors—pKi β1 (converted)): 3.02 µM
- affinity towards β1-adrenoceptor lower compared with the α1 receptor (β1-adrenergic receptor; rat cortex, α1 vs β1): > 1000 fold
SMILES: CCC(CN1CCN(c2ccccc2OC)CC1)NCCCOc1c(C)cccc1C.Cl.Cl (centres unmarked) [HBK-10, N-(3-(2,6-dimethylphenoxy)propyl)-1-(4-(2-methoxyphenyl)piperazin-1-yl)butan-2-amine dihydrochloride]
- ED50 lower than for carvedilol ([1]; HBK-10 ip vs carvedilol iv): ~3 fold
- Extrasystoles (%) ([1]; rat, 0.0625 mg/kg ip 45 min before adrenaline 20 μg/kg iv): 83.3%
- Extrasystoles (%) ([1]; rat, 0.125 mg/kg ip 45 min before adrenaline 20 μg/kg iv): 50%
- Extrasystoles (%) ([1]; rat, 0.25 mg/kg ip 45 min before adrenaline 20 μg/kg iv): 16.7%
- ED50 ([1]; rat, ip 45 min before adrenaline 20 μg/kg iv, read-out: ED50 (extrasystoles caused by adrenaline)): 0.125 mg/kg
- attenuation of adrenaline pressor response (α1-adrenergic receptors; adrenaline 2 μg/kg): 77.2%
- attenuation of methoxamine pressor response (α1-adrenergic receptors; methoxamine 150 μg/kg): 77.4%
- attenuation of noradrenaline pressor response (α1-adrenergic receptors; noradrenaline 2 μg/kg): 32.5%

From paper PMC9609429 (Pharmaceuticals, 2022)
